This is an account of results in PMC8286840, “Identifying SARS-CoV-2 antiviral compounds by screening for small molecule inhibitors of Nsp3 papain-like protease” (Biochemical Journal, 2021).

Counter-ions that a name gives are not always drawn. Like-named read-outs stand apart in the source and are kept apart here.

Assay [1] addresses T1, SARS-CoV-2 PLpro (nsp3 1564–1878) (Severe acute respiratory syndrome coronavirus 2, UniProt P0DTD1). In words: biochemical. As to conditions: low concentration screen, read-out: % of control remaining. The arrangement: FRET-quenched peptide (Pro3) cleavage by PLpro, 10 min pre-incubation, slope over 20 min, normalised to no-compound control.
The target of assay [2] is T1, SARS-CoV-2 PLpro (nsp3 1564–1878). In words: biochemical. The arrangement: FRET-quenched peptide (Pro3) cleavage by PLpro, 10 min pre-incubation, slope over 20 min, normalised to no-compound control. The conditions noted are these: high concentration screen, read-out: % of control remaining.

On to `COc1c(O)cc2oc(-c3ccc(O)cc3)cc(=O)c2c1O` [5,7-dihydroxy-2-(4-hydroxyphenyl)-6-methoxy-4H-chromen-4-one], for which the remaining activity at 1.25 µM in assay [1] (Well no.=5542) was 101%. In addition, in assay [2] (Well no.=5542), the remaining activity at 3.75 µM was 102%.
With `Nc1ncn([C@@H]2O[C@H](CO)[C@@H](O)[C@H]2O)c(=O)n1` [5-azacytidine], the remaining activity at 1.25 µM in assay [1] (Well no.=155) was 95.5%. Besides, in assay [2] (Well no.=155), the remaining activity at 3.75 µM amounted to 96.6%.
For `O=C(O)C1=CC(=C(c2ccc(O)c(C(=O)O)c2)c2ccc(O)c(C(=O)O)c2)C=CC1=O` [Aurintricarboxylic acid], in assay [1] (Well no.=249), the remaining activity at 1.25 µM worked out at 97.6%. Also, the remaining activity at 3.75 µM in assay [2] (Well no.=249) stood at 109%.
For `CC1CCN=C(N)S1` (racemic), in assay [1] (Well no.=12), the remaining activity at 1.25 µM stood at 105%. In addition, the remaining activity at 3.75 µM in assay [2] (Well no.=12) was found to be 106%.
In the case of `CCCCC/C=C\C/C=C\CCCCCCCCC(=O)O` [10(Z),13(Z)-Nonadecadienoic acid], in assay [1] (Well no.=4396), the remaining activity at 1.25 µM came out at 97.8%. For the same molecule, the remaining activity at 3.75 µM in assay [2] (Well no.=4396) worked out at 92.5%.
As for `CCn1nc(C(=O)O)c(=O)c2cc3c(cc21)OCO3` [Cinoxacin], the remaining activity at 1.25 µM in assay [1] (Well no.=332) was 98.1%. Besides, the remaining activity at 3.75 µM in assay [2] (Well no.=332) worked out at 96.9%.
Regarding `NC(=O)c1ccccc1` [Benzamide], in assay [1] (Well no.=358), the remaining activity at 1.25 µM is 96.5%. Further, the remaining activity at 3.75 µM in assay [2] (Well no.=358) is 95.9%.
`CO[C@H]1C(=O)[C@]2(C)[C@@H](OC)C[C@H]3OC[C@@]3(OC(C)=O)[C@H]2[C@H](OC(=O)c2ccccc2)[C@]2(O)C[C@H](OC(=O)[C@H](O)[C@@H](NC(=O)OC(C)(C)C)c3ccccc3)C(C)=C1C2(C)C` [Cabazitaxel (Jevtana)]: in assay [1] (Well no.=5263), the remaining activity at 1.25 µM was 95.3%. Moreover, in assay [2] (Well no.=5263), the remaining activity at 3.75 µM worked out at 92.6%.
With `COc1cc(N)c(Cl)cc1C(=O)OCCN1CCCCC1` [ML 10302], the remaining activity at 1.25 µM in assay [1] (Well no.=5486) stood at 98.8%. Besides, in assay [2] (Well no.=5486), the remaining activity at 3.75 µM was found to be 100%.
In the case of `O=c1c(-c2ccc(O)cc2)coc2cc(O)ccc12` [Daidzein], the remaining activity at 1.25 µM in assay [1] (Well no.=438) was 102%; in assay [1] (Well no.=3219), 103%. The remaining activity at 3.75 µM in assay [2] (Well no.=438) turned out to be 99.2%; in assay [2] (Well no.=3219) it was 104%.
For `N=C(N)NS(=O)(=O)c1ccc(N)cc1` [Sulfaguanidine], in assay [1] (Well no.=7348), the remaining activity at 1.25 µM is 93.5%. Besides, in assay [2] (Well no.=7348), the remaining activity at 3.75 µM came out at 93.1%.
Consider `NC1CCN(c2c(F)cc3c(=O)c(C(=O)O)cn(C4CC4)c3c2Cl)C1` (centres unmarked) [Clinafloxacin], for which the remaining activity at 1.25 µM in assay [1] (Well no.=2271) turned out to be 93.2%. Moreover, the remaining activity at 3.75 µM in assay [2] (Well no.=2271) amounted to 96.8%.
`CSc1ccc(C(=O)/C=C/c2cc(C)c(OC(C)(C)C(=O)O)c(C)c2)cc1` [Elafibranor]: the remaining activity at 1.25 µM in assay [1] (Well no.=8106) is 96.6%. For the same molecule, the remaining activity at 3.75 µM in assay [2] (Well no.=8106) worked out at 95.3%.
As to `Cc1cc(Nc2cc(N3CCN(C)CC3)nc(/C=C/c3ccccc3)n2)n[nH]1` [ENMD-2076 L-(+)-Tartaric acid], in assay [1] (Well no.=5012), the remaining activity at 1.25 µM was 101%. Besides, in assay [2] (Well no.=5012), the remaining activity at 3.75 µM was determined as 89.1%.
In the case of `O=C(OC12CC3CC(CC(C3)C1)C2)c1ccc(NCc2cc(O)ccc2O)cc1` [Adaphostin], the remaining activity at 1.25 µM in assay [1] (Well no.=5772) was determined as 105%. For the same molecule, in assay [2] (Well no.=5772), the remaining activity at 3.75 µM was found to be 109%.
Turning to `Cc1cc(OCCCS(C)(=O)=O)cc(C)c1-c1cccc(COc2ccc3c(c2)OC[C@H]3CC(=O)O)c1` [TAK-875], the remaining activity at 1.25 µM in assay [1] (Well no.=4966) was found to be 96.6%; in assay [1] (Well no.=7771), 107%. Moreover, the values for the remaining activity at 3.75 µM in assay [2] (Well no.=4966) and in assay [2] (Well no.=7771) were 91.6% and 103%, respectively.
As for `O=C1NC(=O)c2c1c1c3ccccc3n3c1c1c2c2ccccc2n1[C@H]1CC[C@@H]3O1` [SB 218078], the remaining activity at 1.25 µM in assay [1] (Well no.=2648) amounted to 92.1%. The remaining activity at 3.75 µM in assay [2] (Well no.=2648) was determined as 94.3%.
In the case of `CCN[C@H]1C[C@H](C)S(=O)(=O)c2sc(S(N)(=O)=O)cc21` [Dorzolamide.HCl], the remaining activity at 1.25 µM in assay [1] (Well no.=1878) worked out at 96.7%. Besides, the remaining activity at 3.75 µM in assay [2] (Well no.=1878) stood at 96.1%.
As for `COC(c1ccccc1)(c1ccccc1)[C@H](Oc1nc(C)cc(C)n1)C(=O)O` [Ambrisentan], the remaining activity at 1.25 µM came to 94.8% in assay [1] (Well no.=5270) and 102% in assay [1] (Well no.=6365). Also, the remaining activity at 3.75 µM in assay [2] (Well no.=5270) came out at 92.5%; in assay [2] (Well no.=6365) it was 98.8%.
As for `CCOC(=O)[C@H](CCc1ccccc1)N[C@@H](C)C(=O)N1Cc2ccccc2C[C@H]1C(=O)O` [Quinapril (hydrochloride)], in assay [1] (Well no.=7828), the remaining activity at 1.25 µM came to 96.3%. For the same molecule, the remaining activity at 3.75 µM in assay [2] (Well no.=7828) came out at 95%.
For the molecule `CCCCCCCCCCCCCCCCOC[C@H](CO)OC` [1-Hexadecyl-2-O-methyl-glycerol], the remaining activity at 1.25 µM in assay [1] (Well no.=4572) amounted to 97.5%. Besides, the remaining activity at 3.75 µM in assay [2] (Well no.=4572) was 99.2%.
For `C=C(c1ccc(C(=O)O)cc1)c1cc2c(cc1C)C(C)(C)CCC2(C)C` [Bexarotene], the remaining activity at 1.25 µM in assay [1] (Well no.=1814) came out at 93.1%. Further, in assay [2] (Well no.=1814), the remaining activity at 3.75 µM is 94.9%.
In the case of `Nc1cc(=O)[nH]c(N)n1` [2,6-Diamino-4-pyrimidinone], the remaining activity at 1.25 µM in assay [1] (Well no.=452) was 104%. Moreover, in assay [2] (Well no.=452), the remaining activity at 3.75 µM worked out at 99.9%.
With `Cc1nccn1CCC(C(N)=O)(c1ccccc1)c1ccccc1` [Imidafenacin], the remaining activity at 1.25 µM in assay [1] (Well no.=6377) was determined as 102%. In assay [2] (Well no.=6377), the remaining activity at 3.75 µM stood at 97.6%.
Regarding `Cc1c(-c2ccccc2)oc2c(C(=O)OCCN3CCCCC3)cccc2c1=O` [Flavoxate (hydrochloride)], the remaining activity at 1.25 µM in assay [1] (Well no.=6803) amounted to 94.8%. Moreover, the remaining activity at 3.75 µM in assay [2] (Well no.=6803) worked out at 94.8%.
On to `Cc1cc(-n2c(=O)[nH]c(=O)n(C)c2=O)ccc1Oc1ccc(SC(F)(F)F)cc1` [Toltrazuril], for which the remaining activity at 1.25 µM in assay [1] (Well no.=4692) came out at 110%. In addition, the remaining activity at 3.75 µM in assay [2] (Well no.=4692) came out at 102%.
For the molecule `CCCCC(=O)O[C@H]1CC[C@H]2[C@@H]3CCc4cc(O)ccc4[C@H]3CC[C@]12C` [Estradiol valerate], in assay [1] (Well no.=5365), the remaining activity at 1.25 µM was 95.5%. In assay [2] (Well no.=5365), the remaining activity at 3.75 µM was 99.5%.
Turning to `CN1C(=O)CCS(=O)(=O)C1c1ccc(Cl)cc1` (centres unmarked) [Chlormezanone], the remaining activity at 1.25 µM in assay [1] (Well no.=679) stood at 99%. For the same molecule, in assay [2] (Well no.=679), the remaining activity at 3.75 µM was 96.9%.
On to `CC[N+](CC)(CC)CCOc1ccc(/C=C/c2ccccc2)cc1` [MG 624], for which the remaining activity at 1.25 µM in assay [1] (Well no.=972) came to 100%. In assay [2] (Well no.=972), the remaining activity at 3.75 µM amounted to 101%.
With `CC(Nc1nc(N2CCCC2)nc2ccccc12)c1ccccc1` (centres unmarked) [Importazole], the remaining activity at 1.25 µM in assay [1] (Well no.=5622) stood at 95.6%. Moreover, in assay [2] (Well no.=5622), the remaining activity at 3.75 µM was determined as 96.8%.
For the molecule `Oc1cc(O)c2c(c1)O[C@H](c1ccc(O)c(O)c1)[C@H](O)C2` [(-)-Epicatechin], the remaining activity at 1.25 µM in assay [1] (Well no.=3348) is 96.9%. The remaining activity at 3.75 µM in assay [2] (Well no.=3348) amounted to 98.5%.
